# Data taken from patent publication US9944019B2, “Tip-loaded microneedle arrays for transdermal insertion” (University of Pittsburgh—Of the Commonwealth System of …, priority 2012, dated 2018).
# System: epidermal cells
# Assay: Apoptosis in living human skin organ cultures, green fluorescent TUNEL assay
# Assay type: cell-based
# Details: arrays removed after 5 minutes, 72 hours of exposure; pyramidal CMC-microneedle arrays
# Description: Cytoxan® was integrated at a concentration of 5 mg/g of CMC, enabling delivery of approximately about 140 μg per array. This is a therapeutically relevant concentration based on the area of skin targeted, yet well below levels associated with systemic toxicities. Living human skin organ cultures were used to assess the cytotoxicty of Cytoxan®. Cytoxan® was delivered by application of arrays to skin explants as we previously described. Arrays and residual material were removed 5 minutes after application, and after 72 hours of exposure, culture living skin explants were cryo-sectioned and fixed.
smiles,measurement,value
"O=P1(N(CCCl)CCCl)NCCCO1 (stereo not shown) [Cytoxan®, cyclophosphamide]",apoptosis (TUNEL),extensive apoptosis of epidermal cells
